Data on 17 compounds can be found in patent US20250129101A1, “Compound, Pharmaceutical Composition Comprising the Same and Method for Treating Cancer Using the Same” (NATIONAL TSING HUA UNIVERSITY, priority 2023, published 2025).

Broadly, the IC50 is the midpoint of a concentration-inhibition curve. The EC50 is the concentration at which the effect is half-maximal. Lower therefore signals greater potency.

For one series, the system named is MDA-MB-231 cells. Put plainly: Cell validation: cytotoxicity in MDA-MB-231 cells (CellTiter-Glo). Particulars: for IC50: Homo sapiens; for IC50 / Cell validation (IC50): cytotoxicity in MDA-MB-231 cells. It is filed as cell-based. As for the experimental part:
(§1) The in vitro validation was performed by measuring KIF2C kinesin activity using malachite green-based phosphate colorimetric assay (BioVision). […] The microtubules from porcine brain tubulin (Cytoskeleton) or purified from HEK293 cells in Free-style medium (293Fs) were dissolved in the BRB80 buffer (80 mM PIPES pH 6.8, 1 mM EGTA, 1 mM MgCl2, 1 mM GTP, 1 mM DTT, and 10% DMSO) at 37° C. for 2 hr. Phosphates released from kinesin-mediated ATP hydrolysis was measured by adding 30 μL of the phosphate colorimetric reagent (BioVision), incubated for 10 min, and then measured with absorbance at 650 nm. […] The cell validation was performed by measuring cytotoxicity in MDA-MB-231 cells. The cells were cultured in a 96-well plate at a confluence of 2000 cells/well with indicates compounds for specific days. When the time was up, the culture medium in the plate was aspirated and replaced with a prepared CellTiter-Glo reagent (Promega)/DMEM mixture (1:1 mix of CellTiter-Glo reagent and serum-supplemented DMEM). After incubation for 10 min, the luminescence was measured with an ELISA plate reader to determine the cell viability.
The cancer cells were cultured in a 96-well plate at a confluence of 1000-2000 cells/well with indicated drugs for specific days. When the time was up, the culture medium in the plate was aspirated and replaced with a prepared CellTiter-Glo reagent/DMEM mixture (1:1 mix of CellTiter-Glo reagent and serum-supplemented DMEM). After incubation for 10 min, the luminescence (proportional to the number of living cells) was measured with an ELISA plate reader to determine the cell viability.
(In general: ATP-based viability assays read luminescence as a measure of living cells.)

A further series deals with T1, KIF2C (Homo sapiens, UniProt Q99661).
T1 construct: KIF2C (216-598 a.a.); 6xHis (C); made in house; host or cells: E. coli BL21 (DE3), pET-28a
T1 sequence (Q99661 216-598): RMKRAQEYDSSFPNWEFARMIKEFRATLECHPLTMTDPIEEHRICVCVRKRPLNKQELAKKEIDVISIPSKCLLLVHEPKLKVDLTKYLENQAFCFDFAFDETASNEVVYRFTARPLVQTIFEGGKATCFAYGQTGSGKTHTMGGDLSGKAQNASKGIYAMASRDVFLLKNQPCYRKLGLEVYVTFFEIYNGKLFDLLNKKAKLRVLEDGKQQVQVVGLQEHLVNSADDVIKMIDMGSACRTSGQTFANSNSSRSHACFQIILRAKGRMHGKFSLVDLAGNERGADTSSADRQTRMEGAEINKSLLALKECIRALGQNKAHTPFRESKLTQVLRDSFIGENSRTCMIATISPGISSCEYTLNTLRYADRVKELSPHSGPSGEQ
Put plainly: In vitro validation: KIF2C kinesin activity, malachite green-based phosphate colorimetric assay. The format is biochemical. Particulars: for EC50: concentration that inhibits 50% of KIF2C activity. As for the experimental part: as §1
In vitro kinesin activity was measured using malachite green-based phosphate colorimetric assay (BioVision). […] The microtubules from porcine brain tubulin (Cytoskeleton) or purified from HEK293 cells in Free-style medium (293Fs) were dissolved in the BRB80 buffer (80 mM PIPES pH 6.8, 1 mM EGTA, 1 mM MgCl2, 1 mM GTP, 1 mM DTT, and 10% DMSO) at 37° C. for 2 hr. Phosphates released from kinesin-mediated ATP hydrolysis was measured by adding 30 μL of the phosphate colorimetric reagent (BioVision), incubated for 10 min, and then measured with absorbance at 650 nm.
Constructs of sN+M regions of KIF2C (216-598 a.a.), KIF2A (181-562 a.a.) and KIF2B (171-553 a.a.) with C-terminal 6×His tag were subcloned into pET-28a vector and expressed in BL21 (DE3) E. coli cells (Novartis) cultured in Luria-Bertani medium supplemented with 50 ug/mL kanamycin at 37° C. After induction with 0.8 mM IPTG for 18 hr at 20° C., the cells were pelleted by centrifugation at 6000 rpm for 30 min at 10° C. The collected pellets were resuspended in 30 mL of buffer A (20 mM Tris-HCl pH 7.5, 500 mM NaCl, 10 mM imidazole, 1% CHAPS, and 1 mM PMSF) and next subjected to a high-pressure homogenizer (EmulsiFlex-C3) for cell lysis. After removing the cell debris by centrifugation at 13000 rpm for 30 min at 10° C., the recombinant Kinesin-13 in the supernatant was purified using nickel affinity chromatography. Firstly, the supernatant was applied to the Ni-NTA column (GE Healthcare) pre-equilibrated with buffer A. Secondly, the column was washed with 10× column volumes of buffer A to remove the unwanted proteins. The washed column was then eluted with 10× column volumes of buffer containing increasing concentrations of imidazole (40, 100, 300, 1000 mM), and the majority of the recombinant Kinesin-13 protein was eventually obtained in a fraction of 300 mM imidazole. The fractions containing the recombinant Kinesin-13 were subsequently concentrated in the buffer B (20 mM Tris-HCl pH 7.5, 10 mM imidazole, 50 mM NaCl, 2 mM DTT) using an Amicon® Ultra filter (Millipore) and subjected to cation exchange column (Capto S, GE Healthcare) for further purification. The recombinant Kinesin-13 was then eluted in elution buffer (20 mM Tris-HCl pH 7.5 and 2 mM DTT) containing 400 mM of NaCl and stored at −80° C. for long-term storage.

Consider `CC1=C(C(=O)OC(C)C)C(c2ccc(Cl)cc2)n2c(s/c(=C\c3ccc(F)cc3)c2=O)=N1` (stereo not drawn) [2S0 (22), isopropyl (Z)-5-(4-chlorophenyl)-2-(4-fluorobenzylidene)-7-methyl-3-oxo-2,3-dihydro-5H-thiazolo[3,2-a]pyrimidine-6-carboxylate], for which the IC50 in the series with MDA-MB-231 cells is > 50 µM. The EC50 on KIF2C is > 100 µM.

`COc1ccc(/C=c2\sc3n(c2=O)C(c2ccc(Cl)cc2)C(C(=O)OC(C)C)=C(C)N=3)cc1` (stereo not drawn) [3S0 (23), isopropyl (Z)-5-(4-chlorophenyl)-2-(4-methoxybenzylidene)-7-methyl-3-oxo-2,3-dihydro-5H-thiazolo[3,2-a]pyrimidine-6-carboxylate]: the IC50 in the series with MDA-MB-231 cells was > 50 µM. For the same compound, the EC50 on KIF2C was > 100 µM.

For `CCOC(=O)COc1ccc(/C=c2\sc3n(c2=O)C(c2ccc(Cl)cc2)C(C(=O)OC(C)C)=C(C)N=3)cc1` (stereo not drawn) [4S0 (26), 1-methylethyl 5-(4-chlorophenyl)-2-[[4-(2-ethoxy-2-oxoethoxy)phenyl]methylene]-2,3-dihydro-7-methyl-3-oxo-5H-thiazolo[3,2-a]pyrimidine-6-carboxylate], the IC50 in the series with MDA-MB-231 cells is > 50 µM. On KIF2C, the EC50 was > 100 µM.

Take `CC1=C(C(=O)OC(C)C)C(c2ccc(Cl)cc2)n2c(s/c(=C\c3ccc(OCC(=O)N4CCN(C)CC4)cc3)c2=O)=N1` (stereo not drawn) [6S0 (13), propan-2-yl (2Z)-5-(4-chlorophenyl)-7-methyl-2-(4-(2-(4-methylpiperazin-1-yl)-2-oxoethoxy)benzylidene)-3-oxo-2,3-dihydro-5H-[1,3]thiazolo[3,2-a]pyrimidine-6-carboxylate]: the “cytotoxicity on MDA-MB-231 cells (in words)” value in the series with MDA-MB-231 cells (72 hr) is given as “showed cytotoxicity”. Moreover, the “Cell validation (IC50)” value with MDA-MB-231 cells is “+ +”. Besides, on KIF2C, the EC50 lay within 50 to 100 µM.

Regarding `CC1=C(C(=O)OC(C)C)C(c2ccc(Cl)cc2)n2c(s/c(=C\c3ccc(OCC(N)=O)cc3)c2=O)=N1` (stereo not drawn) [8S0 (15), isopropyl (Z)-2-(4-(2-amino-2-oxoethoxy)benzylidene)-5-(4-chlorophenyl)-7-methyl-3-oxo-2,3-dihydro-5H-thiazolo[3,2-a]pyrimidine-6-carboxylate], in the series with MDA-MB-231 cells, the IC50 is > 50 µM. Further, the EC50 on KIF2C is > 100 µM.

`CC1=C(C(=O)OC(C)C)C(c2ccc(F)cc2)n2c(s/c(=C\c3ccc(OCC(=O)O)cc3)c2=O)=N1` (stereo not drawn) [9S0 (32), (4-(((2Z)-5-(4-fluorophenyl)-7-methyl-3-oxo-6-((propan-2-yloxy)carbonyl)-5H-[1,3]thiazolo[3,2-a]pyrimidin-2(3H)-ylidene)methyl)phenoxy)acetic acid]: the IC50 in the series with MDA-MB-231 cells was > 50 µM. At KIF2C, the EC50 was < 50 µM.

In the case of `CNC(=O)COc1ccc(/C=c2\sc3n(c2=O)C(c2ccc(F)cc2)C(C(=O)OC(C)C)=C(C)N=3)cc1` (stereo not drawn) [10S0 (35), isopropyl (Z)-5-(4-fluorophenyl)-7-methyl-2-(4-(2-(methylamino)-2-oxoethoxy)benzylidene)-3-oxo-2,3-dihydro-5H-thiazolo[3,2-a]pyrimidine-6-carboxylate], the IC50 in the series on MDA-MB-231 cells is > 50 µM. Also, the EC50 at KIF2C is > 100 µM.

On to `CC1=C(C(=O)OC(C)C)C(c2ccc(Cl)cc2)n2c(s/c(=C\c3ccc(OCC(=O)N4CCN(C(C)C)CC4)cc3)c2=O)=N1` (stereo not drawn) [11S0 (16), isopropyl (Z)-5-(4-chlorophenyl)-2-(4-(2-(4-isopropylpiperazin-1-yl)-2-oxoethoxy)benzylidene)-7-methyl-3-oxo-2,3-dihydro-5H-thiazolo[3,2-a]pyrimidine-6-carboxylate], for which the “Cell validation (IC50)” value with MDA-MB-231 cells is “+ +”. In addition, the EC50 on KIF2C is > 100 µM.

In the case of `CCOC(=O)C1=C(C)N=c2s/c(=C\c3ccc(OCC(=O)O)cc3)c(=O)n2C1c1ccc(Cl)cc1` (stereo not drawn) [12S0 (79), (Z)-2-(4-((5-(4-chlorophenyl)-6-(ethoxycarbonyl)-7-methyl-3-oxo-5H-thiazolo[3,2-a]pyrimidin-2(3H)-ylidene)methyl)phenoxy)acetic acid], the IC50 with MDA-MB-231 cells is > 50 µM. In addition, the EC50 at KIF2C is < 20 µM.

Regarding `COC(=O)C1=C(C)N=c2s/c(=C\c3ccc(OCC(=O)O)cc3)c(=O)n2C1c1ccc(Cl)cc1` (stereo not drawn) [14S0 (78), (Z)-2-(4-((5-(4-chlorophenyl)-6-(methoxycarbonyl)-7-methyl-3-oxo-5H-thiazolo[3,2-a]pyrimidin-2(3H)-ylidene)methyl)phenoxy)acetic acid], the IC50 in the series on MDA-MB-231 cells is > 50 µM. The same compound registered an EC50 on KIF2C of 50 to 100 µM.

With `CC1=C(C(=O)OC(C)C)C(c2cccc(Cl)c2)n2c(s/c(=C\c3ccc(OCC(=O)O)cc3)c2=O)=N1` (stereo not drawn) [15S0 (66), (Z)-2-(4-((5-(3-chlorophenyl)-6-(isopropoxycarbonyl)-7-methyl-3-oxo-5H-thiazolo[3,2-a]pyrimidin-2(3H)-ylidene)methyl)phenoxy)acetic acid], the IC50 with MDA-MB-231 cells is > 50 µM. At KIF2C, the EC50 is > 100 µM.

As to `CCN1CCN(C(=O)COc2ccc(/C=c3\sc4n(c3=O)C(c3cccc(Cl)c3)C(C(=O)OC(C)C)=C(C)N=4)cc2)CC1` (stereo not drawn) [16S0 (67), isopropyl (Z)-5-(3-chlorophenyl)-2-(4-(2-(4-ethylpiperazin-1-yl)-2-oxoethoxy)benzylidene)-7-methyl-3-oxo-2,3-dihydro-5H-thiazolo[3,2-a]pyrimidine-6-carboxylate], the “Cell validation (IC50)” value in the series with MDA-MB-231 cells is on record as “+ +”. Further, the EC50 on KIF2C fell in the range of 50 to 100 µM.

With `CC1=C(C(=O)OC(C)C)C(c2ccc(C)cc2)n2c(s/c(=C\c3ccc(OCC(=O)O)cc3)c2=O)=N1` (stereo not drawn) [17S0 (50), (Z)-2-(4-((6-(isopropoxycarbonyl)-7-methyl-3-oxo-5-(p-tolyl)-5H-thiazolo[3,2-a]pyrimidin-2(3H)-ylidene)methyl)phenoxy)acetic acid], the IC50 in the series on MDA-MB-231 cells is > 50 µM. The EC50 on KIF2C is > 100 µM.

Consider `CCN1CCN(C(=O)COc2ccc(/C=c3\sc4n(c3=O)C(c3ccc(C)cc3)C(C(=O)OC(C)C)=C(C)N=4)cc2)CC1` (stereo not drawn) [18S0 (51), isopropyl (Z)-2-(4-(2-(4-ethylpiperazin-1-yl)-2-oxoethoxy)benzylidene)-7-methyl-3-oxo-5-(p-tolyl)-2,3-dihydro-5H-thiazolo[3,2-a]pyrimidine-6-carboxylate], for which the “Cell validation (IC50)” value in the series on MDA-MB-231 cells is given as “+ +”. The same compound had an EC50 on KIF2C of 50 to 100 µM.

Take `CC1=C(C(=O)OC(C)C)C(c2ccc(N(C)C)cc2)n2c(s/c(=C\c3ccc(OCC(=O)N4CCN(C)CC4)cc3)c2=O)=N1` (stereo not drawn) [19S0 (56), isopropyl (Z)-5-(4-(dimethylamino)phenyl)-7-methyl-2-(4-(2-(4-methylpiperazin-1-yl)-2-oxoethoxy)benzylidene)-3-oxo-2,3-dihydro-5H-thiazolo[3,2-a]pyrimidine-6-carboxylate]: the “Cell validation (IC50)” value in the series on MDA-MB-231 cells is on record as “+ +”. For the same compound, the concentration for a half-maximal effect (EC50) on KIF2C is < 50 µM.

As to `CC1=C(C(=O)OC(C)C)C(c2ccc(Cl)cc2)n2c(s/c(=C\c3ccc(OCC(=O)N4CCC(N5CCN(C)CC5)CC4)cc3)c2=O)=N1.O=C(O)/C=C\C(=O)O` (stereo not drawn) [24S9 (135), isopropyl (Z)-5-(4-chlorophenyl)-7-methyl-2-(4-(2-(4-(4-methylpiperazin-1-yl)piperidin-1-yl)-2-oxoethoxy)benzylidene)-3-oxo-2,3-dihydro-5H-thiazolo[3,2-a]pyrimidine-6-carboxylate maleate], the “Cell validation (IC50)” value in the series on MDA-MB-231 cells is given as “+ + + +”.

For the compound `COC(=O)Nc1nc2ccc(C(=O)c3cccs3)cc2[nH]1` [nocodazole, reference compound], the “KIF2C activity in reaction containing nocodazole (in words)” value on KIF2C (1 μM nocodazole) is “largely reduced”.
